Tests used:
human FPR2 = human FPR2 (Homo sapiens (Human), UniProt P25090); test: FPR2 cyclic adenosine monophosphate (cAMP) assay; format: cell-based; settings: CHO cells overexpressing human FPR2; forskolin 5 µM; inhibition of cAMP production; read-out: hFPR2 cAMP2 EC50
Procedure, shortened: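 CHO cells overexpressing human FPR2 (2,000/well) incubated 30 min at room temperature with compound (0.020 nM–100 µM, 1% DMSO), 5 µM forskolin and 200 µM IBMX.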

human FPR1 = human FPR1 (Homo sapiens (Human), UniProt P21462); test: FPR1 cyclic adenosine monophosphate (cAMP) assay; format: cell-based; settings: CHO cells overexpressing human FPR1; forskolin 10 µM; inhibition of cAMP production; read-out: hFPR1 cAMP EC50
Chain of human FPR1 (P21462 whole entry): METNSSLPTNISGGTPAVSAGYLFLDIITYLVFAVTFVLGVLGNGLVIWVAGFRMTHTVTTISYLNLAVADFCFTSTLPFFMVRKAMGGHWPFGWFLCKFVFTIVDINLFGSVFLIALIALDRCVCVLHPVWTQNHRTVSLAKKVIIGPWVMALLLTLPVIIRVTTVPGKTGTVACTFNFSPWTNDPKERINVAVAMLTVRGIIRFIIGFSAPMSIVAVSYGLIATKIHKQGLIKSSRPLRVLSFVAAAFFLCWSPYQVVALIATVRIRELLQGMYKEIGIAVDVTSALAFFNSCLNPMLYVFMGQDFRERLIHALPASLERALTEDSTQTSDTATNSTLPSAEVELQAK
Procedure, shortened: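 CHO cells overexpressing human FPR1 (4,000 cells/well) stimulated with 10 µM forskolin plus 200 µM IBMX in the presence of compound (0.020 nM–100 µM, 1% DMSO), 30 min at room temperature. Intracellular cAMP measured by HTRF. Inhibition of cAMP production fitted to a 4-parameter logistic equation.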

Chain of human FPR2 (P25090 whole entry): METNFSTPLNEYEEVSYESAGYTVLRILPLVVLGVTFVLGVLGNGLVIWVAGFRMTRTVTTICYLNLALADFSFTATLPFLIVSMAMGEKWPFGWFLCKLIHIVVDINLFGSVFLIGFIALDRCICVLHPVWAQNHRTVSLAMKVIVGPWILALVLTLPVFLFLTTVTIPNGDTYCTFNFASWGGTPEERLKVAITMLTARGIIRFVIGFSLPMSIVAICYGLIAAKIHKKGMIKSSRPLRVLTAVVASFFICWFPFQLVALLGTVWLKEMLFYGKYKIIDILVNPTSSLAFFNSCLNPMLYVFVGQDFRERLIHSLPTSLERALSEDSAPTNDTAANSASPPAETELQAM

| EC50 (human FPR2) | EC50 (human FPR1) | SMILES |
| --- | --- | --- |
| 4.5 nM | 12 nM | COc1cc(F)c([C@@H]2CN(c3cccn(CC(C)O)c3=O)C(=O)[C@H]2NC(=O)c2ccc(OC(F)(F)F)cc2)c(F)c1 (stereo partly shown) [Example 173] |
| 4.6 nM | 15 nM | COc1cc(F)c([C@@H]2CN(c3nc(N(C)C(C)=O)ccc3F)C(=O)[C@H]2NC(=O)c2ccc(OC(F)F)cc2)c(F)c1 [Example 177] |
| 4.7 nM | > 10000 nM | COc1cc(N2C[C@@H](C)N(C)[C@@H](C)C2)nc(N2C[C@@H](c3c(F)cc(OC)cc3F)[C@H](NC(=O)c3ccc(Cl)cc3)C2=O)c1 [Example 180] |
| 4.8 nM | 990 nM | COc1cc(F)c([C@@H]2CN(c3nccc(N4C[C@@H](C)N(C)[C@@H](C)C4)c3C(F)(F)F)C(=O)[C@H]2NC(=O)c2ccc(Cl)cc2)c(F)c1 [Example 181] |
| 4.8 nM | 1.8 nM | COc1ccc([C@@H]2CN(c3c(C)ccn(CC(F)F)c3=O)C(=O)[C@H]2NC(=O)c2ccc(OC(F)(F)F)cc2)c(F)c1 [Example 182] |
| 4.8 nM | 0.6 nM | CCn1ccc(C)c(N2C[C@@H](c3ccc(OC)cc3F)[C@H](NC(=O)c3ccc(OC(F)(F)F)cc3)C2=O)c1=O [Example 183] |
| 4.8 nM | 9.8 nM | COc1cc(F)c([C@@H]2CN(c3cccc(OC(F)F)c3)C(=O)[C@H]2NC(=O)c2ccc(OC(F)(F)F)cc2)c(F)c1 [Example 184] |
| 4.8 nM | 0.7 nM | COCCn1ccc(C)c(N2C[C@@H](c3c(F)cc(OC)cc3F)[C@H](NC(=O)c3ccc(OC(F)(F)F)cc3)C2=O)c1=O [Example 185] |
| 4.9 nM | 38 nM | COc1cc(F)c([C@@H]2CN(c3cccn(C(F)F)c3=O)C(=O)[C@H]2NC(=O)c2ccc(OC(F)(F)F)cc2)c(F)c1 [Example 188] |
| 5 nM | 90 nM | COc1cc(F)c([C@@H]2CN(c3cccn(CC(F)(F)F)c3=O)C(=O)[C@H]2NC(=O)c2ccc(OC(F)(F)F)cc2)c(F)c1 [Example 191] |

Further lines, the compound ahead of its results:

| SMILES | EC50 (human FPR2) | EC50 (human FPR1) |
| --- | --- | --- |
| COCC(C(=O)N(C)C)n1cccc(N2C[C@@H](c3c(F)cc(OC)cc3F)[C@H](NC(=O)c3ccc(OC(F)F)cc3)C2=O)c1=O (stereo partly shown) [Example 172] | 4.5 nM | 39 nM |
| COc1cc(F)c([C@@H]2CN(c3cccn(CCO)c3=O)C(=O)[C@H]2NC(=O)c2ccc(OC(F)(F)F)cc2)c(F)c1 [Example 174] | 4.5 nM | 67 nM |
| COCC(CO)n1cccc(N2C(=O)[C@@H](NC(=O)c3ccc(OC(F)(F)F)cc3)[C@H](c3c(F)cc(OC)cc3F)[C@@H]2C)c1=O (stereo partly shown) [Example 175] | 4.6 nM | 9.3 nM |
| COc1cc(F)c([C@@H]2CN(c3c(C)ccn(CC(C)O)c3=O)C(=O)[C@H]2NC(=O)c2ccc(OC(F)F)cc2)c(F)c1 (stereo partly shown) [Example 176] | 4.6 nM | 6.5 nM |
| COCCn1ccc(C)c(N2C[C@@H](c3ccc(OC)cc3)[C@H](NC(=O)c3ccc(OC(F)(F)F)cc3)C2=O)c1=O [Example 178] | 4.7 nM | 0.1 nM |
| COc1cc(F)c([C@@H]2CN(c3cccn(CC(C)(CO)CO)c3=O)C(=O)[C@H]2NC(=O)c2ccc(OC(F)F)cc2)c(F)c1 [Example 179] | 4.7 nM | 92 nM |
| COc1cc(F)c([C@@H]2CN(c3cccn(CC(OC)C(F)(F)F)c3=O)C(=O)[C@H]2NC(=O)c2ccc(OC(F)F)cc2)c(F)c1 (stereo partly shown) [Example 186] | 4.9 nM | 3 nM |
| COc1cc(F)c([C@@H]2CN(c3cccn(CC(C)(CO)CO)c3=O)C(=O)[C@H]2NC(=O)c2ccc(OC(F)(F)F)cc2)c(F)c1 [Example 187] | 4.9 nM | 38 nM |
| COc1cc(F)c([C@@H]2CN(c3cc(Cl)cn(C)c3=O)C(=O)[C@H]2NC(=O)c2ccc(Cl)cc2)c(F)c1 [Example 189] | 5 nM | 3400 nM |
| COc1cc(F)c([C@@H]2CN(c3cccn(CC(F)(F)F)c3=O)C(=O)[C@H]2NC(=O)c2ccc(OC(F)F)cc2)c(F)c1 [Example 190] | 5 nM | 130 nM |
